Measured values reported in PMC6237192 (European journal of medicinal chemistry, 2018).

How the values were obtained:
[1] = system: MT4 cells; test: Cytotoxicity; type: cell-based, human; conditions: ratio of CC50 to IC50
[2] = system: HIV-1NL4-3 (subtype B); test: Antiviral activity in MT-4 human T-lymphoid cells exposed to HIV-1NL4-3; type: cell-based; conditions: Human immunodeficiency virus 1, MT4, in Homo sapiens

IC50 [2] | SMILES | Selectivity Index [1]
 | COc1ccc(S(=O)(=O)N(CC(C)C)C[C@@H](O)[C@H](Cc2ccccc2)NC(=O)c2ccc3c(c2)[C@@H](NC(=O)OC(C)(C)C)CCS3(=O)=O)cc1 [Inhibitor 4e, tert-Butyl ((S)-6-(((2S,3R)-3-hydroxy-4-((N-isobutyl-4-methoxyphenyl)sulfonamido)-1-phenylbutan-2-yl)carbamoyl)-1,1-dioxidothiochroman-4-yl)carbamate] | >2128
30 nM | CC(C)CN(C[C@@H](O)[C@H](Cc1ccccc1)NC(=O)O[C@H]1CCOC1)S(=O)(=O)c1ccc(N)cc1 [amprenavir] | 
